Converted amounts (≈) assume the structure as drawn. Like-named read-outs stand apart in the source and are kept apart here.
What was measured:
[1] = test system: M. morganii GN5407; experiment: agar plate dilution method, MIC against M. morganii GN5407; type: cell-based; details: Morganella morganii; M. morganii GN5407 (lactamase-producing strain); 10^6 CFU/ml, 37° C., 16 hours; read-out: Minimum Inhibitory Concentration (MIC)
Description: (§1) The in vitro antibacterial activities of the compounds of the present invention against various microorganisms, were measured by the following agar plate dilution method. One platinum loopfull of each test microorganism incubated overnight in Mueller Hinton broth, was inoculated to Mueller Hinton agar (inoculum size: 10^6 CFU/ml) Such culture media containing various antibiotics in various concentrations were prepared After incubation at 37° C. for 16 hours, the minimum inhibitory concentrations (MIC: μg/ml) were measured. As comparative compounds, cefotaxime, oeftazidime and the compounds disclosed in Example 2 of Japanese Unexamined Patent Publication No. 215690/1985 e.g. sodium 7-[2-(2-aminothiazol-4-yl)-2-ethoxyiminoacetamido]-3-(1-carboxylatemethylpyridinio-4-yl)thiomethyl-3-cephem-4-carboxylate (hereinafter referred to simply as "Reference Example A") were employed.

[2] = test system: E. coli CSH2 (RK1); experiment: agar plate dilution method, MIC against E. coli CSH2 (RK1); type: cell-based; details: Escherichia coli, 16 h, read-out: Minimum Inhibitory Concentration (MIC)
Description: as §1

[3] = test system: M. luteus ATCC9341; experiment: agar plate dilution method, MIC against M. luteus ATCC9341; type: cell-based; details: Micrococcus luteus, read-out: Minimum Inhibitory Concentration (MIC)
Description: as §1

[4] = test system: Ps. aeruginosa AKR17; experiment: agar plate dilution method, MIC against Ps. aeruginosa AKR17; type: cell-based; details: Pseudomonas aeruginosa; Ps. aeruginosa AKR17; 10^6 CFU/ml, 37° C., 16 hours; read-out: Minimum Inhibitory Concentration (MIC)
Description: as §1

[5] = test system: E. cloacae 963; experiment: agar plate dilution method, MIC against E. cloacae 963; type: cell-based; details: read-out: Minimum Inhibitory Concentration (MIC)
Description: as §1

[6] = test system: S. marcescens No. 16-2; experiment: agar plate dilution method, MIC against S. marcescens No. 16-2; type: cell-based; details: Serratia marcescens, NO.162, 16 h, read-out: Minimum Inhibitory Concentration (MIC)
Description: as §1

[7] = test system: K. oxytoca GN10650; experiment: agar plate dilution method, MIC against K. oxytoca GN10650; type: cell-based; details: Klebsiella oxytoca, read-out: Minimum Inhibitory Concentration (MIC)
Description: as §1

[8] = test system: E. cloacae Nek 39; experiment: agar plate dilution method, MIC against E. cloacae Nek 39; type: cell-based; details: Enterobacter cloacae, NEK39; E. cloacae Nek 39 (lactamase-producing strain); 10^6 CFU/ml, 37° C., 16 hours; read-out: Minimum Inhibitory Concentration (MIC)
Description: as §1

[9] = test system: A. calcoaceticus No. 4; experiment: agar plate dilution method, MIC against A. calcoaceticus No. 4; type: cell-based; details: Acinetobacter calcoaceticus, read-out: Minimum Inhibitory Concentration (MIC)
Description: as §1

[10] = test system: Ps. cepacia 23; experiment: agar plate dilution method, MIC against Ps. cepacia 23; type: cell-based, Pseudomonas cepacia; details: read-out: Minimum Inhibitory Concentration (MIC)
Description: as §1

[11] = test system: K. pneumoniae No. 42; experiment: agar plate dilution method, MIC against K. pneumoniae No. 42; type: cell-based; details: Klebsiella pneumoniae; K. pneumoniae No. 42 (lactamase-producing strain); 10^6 CFU/ml, 37° C., 16 hours; read-out: Minimum Inhibitory Concentration (MIC)
Description: as §1

[12] = test system: C. freundii GN346/16; experiment: agar plate dilution method, MIC against C. freundii GN346/16; type: cell-based; details: Citrobacter freundii, read-out: Minimum Inhibitory Concentration (MIC)
Description: as §1

[13] = test system: C. freundii GN346; experiment: agar plate dilution method, MIC against C. freundii GN346; type: cell-based; details: Citrobacter freundii; C. freundii GN346 (lactamase-producing strain); 10^6 CFU/ml, 37° C., 16 hours; read-out: Minimum Inhibitory Concentration (MIC)
Description: as §1

[14] = test system: P. vulgaris HX-19; experiment: agar plate dilution method, MIC against P. vulgaris HX-19; type: cell-based; details: Proteus vulgaris, read-out: Minimum Inhibitory Concentration (MIC)
Description: as §1

[15] = test system: Ps. aeruginosa IFO3445; experiment: agar plate dilution method, MIC against Ps. aeruginosa IFO3445; type: cell-based; details: Pseudomonas aeruginosa, read-out: Minimum Inhibitory Concentration (MIC)
Description: as §1

[16] = test system: S. marcescens IAM 1184; experiment: agar plate dilution method, MIC against S. marcescens IAM 1184; type: cell-based; details: Serratia marcescens, read-out: Minimum Inhibitory Concentration (MIC)
Description: as §1

[17] = test system: S. epidermidis IAM12012; experiment: agar plate dilution method, MIC against S. epidermidis IAM12012; type: cell-based; details: Staphylococcus epidermidis, read-out: Minimum Inhibitory Concentration (MIC)
Description: as §1

[18] = test system: E. coli NIHJ JC2; experiment: agar plate dilution method, MIC against E. coli NIHJ JC2; type: cell-based; details: Escherichia coli, read-out: Minimum Inhibitory Concentration (MIC)
Description: as §1

[19] = test system: K. pneumoniae PCI-602; experiment: agar plate dilution method, MIC against K. pneumoniae PCI-602; type: cell-based; details: Klebsiella pneumoniae, read-out: Minimum Inhibitory Concentration (MIC)
Description: as §1

[20] = test system: Ps. aeruginosa AK 109; experiment: agar plate dilution method, MIC against Ps. aeruginosa AK 109; type: cell-based; details: Pseudomonas aeruginosa, read-out: Minimum Inhibitory Concentration (MIC)
Description: as §1

[21] = test system: E. coli GN5482; experiment: agar plate dilution method, MIC against E. coli GN5482; type: cell-based; details: Escherichia coli; E. coli GN5482 (lactamase-producing strain); 10^6 CFU/ml, 37° C., 16 hours; read-out: Minimum Inhibitory Concentration (MIC)
Description: as §1

[22] = test system: E. coli CSH(RE45); experiment: agar plate dilution method, MIC against E. coli CSH(RE45); type: cell-based; details: Escherichia coli, 16 h, read-out: Minimum Inhibitory Concentration (MIC)
Description: as §1

[23] = test system: S. aureus JS1; experiment: agar plate dilution method, MIC against S. aureus JS1; type: cell-based; details: Staphylococcus aureus, read-out: Minimum Inhibitory Concentration (MIC)
Description: as §1

[24] = test system: S. aureus 209P NIHJ-JC1; experiment: agar plate dilution method, MIC against S. aureus 209P NIHJ-JC1; type: cell-based; details: Staphylococcus aureus, read-out: Minimum Inhibitory Concentration (MIC)
Description: as §1

[25] = test system: P. vulgaris No. 33; experiment: agar plate dilution method, MIC against P. vulgaris No. 33; type: cell-based; details: Proteus vulgaris; P. vulgaris No. 33 (lactamase-producing strain); 10^6 CFU/ml, 37° C., 16 hours; read-out: Minimum Inhibitory Concentration (MIC)
Description: as §1

[26] = test system: Ps. maltophilia GN 12873; experiment: agar plate dilution method, MIC against Ps. maltophilia GN 12873; type: cell-based, Pseudomonas maltophilia; details: Stenotrophomonas maltophilia, GN12873; Ps. maltophilia GN 12873 (lactamase-producing strain); 10^6 CFU/ml, 37° C., 16 hours; read-out: Minimum Inhibitory Concentration (MIC)
Description: as §1

[27] = test system: S. aureus BB5703; experiment: agar plate dilution method, MIC against S. aureus BB5703; type: cell-based; details: Staphylococcus aureus, read-out: Minimum Inhibitory Concentration (MIC)
Description: as §1

[28] = Enterobacter cloacae, 963, 16 h
[29] = K. oxytoca GN10650 (lactamase-producing strain), 10^6 CFU/ml, 37° C., 16 hours
[30] = A. calcoaceticus No. 4, 10^6 CFU/ml, 37° C., 16 hours
[31] = C. freundii GN346/16, 10^6 CFU/ml, 37° C., 16 hours
[32] = S. epidermidis IAM12012, 10^6 CFU/ml, 37° C., 16 hours
[33] = S. aureus JS1 (methicilline resistant; lactamase-producing strain), 10^6 CFU/ml, 37° C., 16 hours
[34] = S. aureus 209P NIHJ-JC1, 10^6 CFU/ml, Mueller Hinton agar, 37° C., 16 hours
[35] = IAM1184, S. marcescens IAM 1184, 10^6 CFU/ml, 37° C., 16 hours

| Structure (SMILES) | MIC [1] [µg/mL] | MIC [2] [µg/mL] | MIC ([3]; ATCC9341, 16 h) [µg/mL] | MIC [4] [µg/mL] | MIC [5, 28] [µg/mL] | MIC [6] [µg/mL] | MIC [7, 29] [µg/mL] | MIC [8] [µg/mL] | MIC [9, 30] [µg/mL] | MIC ([10]; Burkholderia cepacia, 23, 16 h) [µg/mL] | MIC [11] [µg/mL] | MIC [12, 31] [µg/mL] | MIC [13] [µg/mL] | MIC ([14]; HX19, 16 h) [µg/mL] | MIC [17, 32] [µg/mL] | MIC ([18]; NIHJJC2, 16 h) [µg/mL] | MIC [21] [µg/mL] | MIC [22] [µg/mL] | MIC [25] [µg/mL] | MIC [26] [µg/mL] | also measured |
| --- | --- | --- | --- | --- | --- | --- | --- | --- | --- | --- | --- | --- | --- | --- | --- | --- | --- | --- | --- | --- | --- |
| Nc1nc(/C(=N/OCc2ccccc2)C(=O)NC2C(=O)N3C(C(=O)[O-])=C(CSc4cc[n+](CC(=O)O)cc4)CSC23)cs1 (stereo not drawn) [Example 2, monosodium 7-[2-(2-aminithiazol-4-yl)-2-benzyloxyiminoacetamide]-3-(1-caboxylatemethylpyridinio-4-yl)thiomethyl-3-cephem-4-carboxylate (syn-isomer)] | 1.56 | 0.2 | 0.025 | > 100 | 1.56 | 12.5 | 12.5 | 6.25 | 25 | 12.5 | 1.56 | 0.78 | 25 | < 0.006 | 0.2 | 1.56 | 0.78 | 0.2 | 1.56 | > 100 | MIC ([15]; Ps. aeruginosa IFO3445, 10^6 CFU/ml, 37° C., 16 hours): 25 µg/mL; MIC ([16]; IAM1184, 16 h): 1.56 µg/mL; MIC ([19]; PCI602, K. pneumoniae PCI-602, 10^6 CFU/ml, 37° C., 16 hours): 0.0125 µg/mL; MIC ([20]; AK109, Ps. aeruginosa AK 109, 10^6 CFU/ml, 37° C., 16 hours): 25 µg/mL; MIC [23, 33]: 50 µg/mL; MIC [24, 34]: 0.39 µg/mL; MIC ([27]; BB5703, 16 h): 1.56 µg/mL |
| Nc1nc(/C(=N/OC(C(=O)O)c2ccccc2)C(=O)NC2C(=O)N3C(C(=O)[O-])=C(CSc4cc[n+](CC(=O)O)cc4)CSC23)cs1 (stereo not drawn) [Example 3, disodium 7-[2-(2-aminothiazol-4-yl)-2-(α-carboxylatebenzyloxyimino)acetamide]-3-(1-caboxylatemethylpyridinio-4-yl)thiomethyl-3-cephem-4-carboxylate (syn-isomer)] | 0.78 | 0.78 | 3.12 | > 100 | 1.56 | 6.25 | 0.78 | 6.25 | 50 | 3.12 | 1.56 |  | 100 |  |  | 1.56 | 0.78 | 0.78 | 0.1 | > 100 | MIC ([12]; GN346, 16 h): 1.56 µg/mL; MIC ([14]; HX19, P. vulgaris HX-19, 10^6 CFU/ml, 37° C., 16 hours): 0.0125 µg/mL; MIC ([15]; IFO3445, 16 h): 3.12 µg/mL; MIC [16, 35]: 0.39 µg/mL; MIC ([17]; IAM12012, 16 h): 6.25 µg/mL; MIC ([19]; PCI602, 16 h): < 0.006 µg/mL; MIC ([20]; AK109, 16 h): 6.25 µg/mL; MIC [23, 33]: 50 µg/mL; MIC ([24]; 16 h): 12.5 µg/mL; MIC ([27]; S. aureus BB5703, 10^6 CFU/ml, 37° C., 16 hours): 25 µg/mL |
| Nc1nc(C(=NOCc2ccc(O)c(O)c2)C(=O)NC2C(=O)N3C(C(=O)[O-])=C(CSc4cc[n+](CC(=O)O)cc4)CSC23)cs1 (stereo not drawn) [Example 4, 7-[2-(2-aminothiazol-4-yl)-2-(3,4-dihydroxybenzyloxyimino)acetamido]-3-(1-carboxymethylpyridinio-4-yl)thiomethyl-3-cephem-4-carboxylate (syn-isomer)] | 0.1 (≈ 0.149 µM) | 0.05 (≈ 0.0743 µM) |  | > 100 |  | 6.25 (≈ 9.29 µM) |  | 0.78 (≈ 1.16 µM) |  |  | 0.2 (≈ 0.297 µM) | 0.2 (≈ 0.297 µM) | 6.25 (≈ 9.29 µM) | 0.025 (≈ 0.0372 µM) | 0.78 (≈ 1.16 µM) |  | 0.39 (≈ 0.58 µM) | 0.025 (≈ 0.0372 µM) | 0.2 (≈ 0.297 µM) | > 100 | MIC ([3]; M. luteus ATCC9341, 10^6 CFU/ml, 37° C., 16 hours): 0.39 µg/mL (≈ 0.58 µM); MIC ([5]; Enterobacter cloacae, E. cloacae 963, 10^6 CFU/ml, 37° C., 16 hours): 0.1 µg/mL (≈ 0.149 µM); MIC ([7]; GN10650, 16 h): 0.78 µg/mL (≈ 1.16 µM); MIC ([9]; NO.4, 16 h): 1.56 µg/mL (≈ 2.32 µM); MIC ([10]; Burkholderia cepacia, Ps. cepacia 23, 10^6 CFU/ml, 37° C., 16 hours): 0.39 µg/mL (≈ 0.58 µM); MIC ([15]; IFO3445, 16 h): 3.12 µg/mL (≈ 4.64 µM); MIC [16, 35]: 0.1 µg/mL (≈ 0.149 µM); MIC ([18]; NIHJJC2, E. coli NIHJ JC2, 10^6 CFU/ml, 37° C., 16 hours): 0.05 µg/mL (≈ 0.0743 µM); MIC ([19]; PCI602, 16 h): < 0.006 µg/mL; MIC ([20]; AK109, 16 h): 1.56 µg/mL (≈ 2.32 µM); MIC ([23]; JS1, 16 h): 6.25 µg/mL (≈ 9.29 µM); MIC [24, 34]: 0.39 µg/mL (≈ 0.58 µM); MIC ([27]; BB5703, 16 h): 3.12 µg/mL (≈ 4.64 µM) |

— patent publication US4988687A, “Cephalosporin derivatives, and antibacterial agents” (priority 1986, dated 1991)
